What was measured:
[1] = in vivo; cited from earlier work
primary macrophages = experiment: Primary macrophage polarization by IFNγ-containing particles; type: cell-based; details: compared to controls
Text: FIG. 7 presents exemplary data showing primary macrophage polarization in various conditions.
FIG. 7A: Normoxia (i.e., standard cell culture conditions) without interferon gamma (IFNγ).
FIG. 7B: Normoxia with IFNγ.
FIG. 7C: Tumor-promoting conditions (i.e., in hypoxia (1% 02) and 10 vol. % tumor (4T1)-conditioned media) and bound to IFNγ-containing particles after 24 hrs.
As discussed above, discoidal elastomeric particles can encapsulate inflammatory cytokines (i.e., IFNγ) and polarize the cells to which they are bound. […] Macrophages maintained their polarization for 5 days, even when challenged by hypoxia (1% O2) and tumor-conditioned media (i.e., 10 vol. % tumor (4T1)-conditioned media).

Molecule: CCOCc1nc2c(N)nc3ccccc3c2n1CC(C)(C)O [resiquimod]
- maximum tolerated dose (MTD) [1]: 5 mg/kg

Molecule: CC(C)(CNC(=O)c1cccc(-c2noc(C(F)(F)F)n2)c1)c1coc(-c2ccccc2)n1 [TMP195]
- maximum tolerated dose (MTD) [1]: 50 mg/kg

B1: IFNγ: inflammatory cytokine, equivalent free dose (protein, UniProt P01580 23-155, looked up)
Interferon gamma: HGTVIESLESLNNYFNSSGIDVEEKSLFLDIWRNWQKDGDMKILQSQIISFYLRLFEVLKDNQAISNNISVIESHLITTFFSNSKAKKDAFMSIAKFEVNNPQVQRQAFNELIRVVHQLLPESSLRKRKRSRC
- iNOS expression, fold higher (primary macrophages): 1.3 fold

Source: patent US20250177529A1, “ACOUSTIC ENRICHMENT OF ADOPTIVE CELL TRANSFERS” (THE REGENTS OF THE UNIVERSITY OF COLORADO, A BODY CORPORATE, priority 2022, published 2025)
